We go through five molecules from patent US4952607A, “Copper complex for treating cancer” (priority 1986, dated 1990).

Values joined by “and” are separate entries in the source; they are usually repeats but may differ in a detail not shown here. Identical values can stand only once. “Also recorded” adds a separate entry of the source. Like-named read-outs stand apart in the source and are kept apart here.

What is called LD50 is the dose at which mortality reaches 50%.

The nature of data set [1]: Body weight of tumor bearing CBA mice (Ehrlich carcinoma). The class given is in vivo.
In data set [2] the test system is Sarcoma 180 cells. In words: Tumor growth and survival of CF1 mice implanted with Sarcoma 180 cells. The class given is in vivo. As to the method:
Autopsies are performed on all dead animals.

For data set [3], the system named is Sarcoma 180 cells. Kind of data set: Viability of Sarcoma 180 cells incubated in Orgotein. It is filed as cell-based, mice. The note with it: 2.5×10^7 cells/ml; 0.8 mg/ml, one hour. How it is done: Table II and Chart II show the survival times of these tumor bearing mice; there is a 23% increase in mean survival time in the Orgotein treated group (p less than 0.1). Viability of the Sarcoma 180 cells (2.5×10^7 cells/ml) is unchanged when they are incubated in 0.8 mg/ml Orgotein for one hour, showing that the effect of Orgotein is probably not due to cytotoxicity.

The nature of data set [4]: SOD activity, xanthine-xanthine oxidase nitro blue tetrazolium method (Beauchamp and Fridovich). The class given is biochemical. As to the method: Orgotein, a generic name for CuZnSOD derived from bovine liver, is obtained from Diagnostic Data Incorporated, Mountain View, California. It is 98% pure CuZnSOD isolated from bovine liver and had 3,300 units of pure erythrocyte SOD activity/mg protein when assayed by the method of Beauchamp, C. and Fridovich, I., Superoxide Dismutase: Improved Assays and an Assay Applicable to Acrylamide Gel., Anal. Biochem. 44:276-287 (1971), hereby incorporated by reference. Orgotein was dissolved in USP grade nonpyrogenic sterile saline.
The SOD activity of Orgotein and of tumor homogenates is assayed by the method of Beauchamp and Fridovich. Reaction mixtures contain 0.05M potassium phosphate buffer (pH 7.8) with 10^-3 M diethylenetriaminepentaacetic acid, 10^-4 M of xanthine, 5.6×10^-5 M of nitro blue tetrazolium, 10^-3 units of xanthine oxidase and 1 unit of catalase. […] The rate of blue formazan formation is measured by following the change of absorbance at 560 nm with a Cary Model 15 spectrophotometer. […] O2^- scavenging ability of CuDIPS is determined by a similar assay method; the only difference is that dimethyl sulfoxide (DMSO) solvated potassium superoxide (KO2) is used to generate O2^- instead of xanthine and xanthine oxidase. […] The formation of blue formazan is determined by recording the final absorbance of the assay mixture at 560 nm with a Cary Model 15 spectrophotometer. […]

Data set [5] is described as follows: O2^- scavenging / SOD activity, DMSO-KO2 nitro blue tetrazolium method. The class given is biochemical. As to conditions: mean.
Procedure: The SOD activity of Orgotein and of tumor homogenates is assayed by the method of Beauchamp and Fridovich. Reaction mixtures contain 0.05M potassium phosphate buffer (pH 7.8) with 10^-3 M diethylenetriaminepentaacetic acid, 10^-4 M of xanthine, 5.6×10^-5 M of nitro blue tetrazolium, 10^-3 units of xanthine oxidase and 1 unit of catalase. Addition of 5×10^-3 M NaCN to this mixture inhibits CuZnSOD activity and allows the measurement of the activity of the cyanid insensitive MnSOD alone. The rate of blue formazan formation is measured by following the change of absorbance at 560 nm with a Cary Model 15 spectrophotometer. The sensitivity of the assay was such that 1 unit equaled 14±1 ng of pure erythrocyte SOD. The amount of protein in each sample is assayed using a conventional method. […] After bones and muscles are removed, the tumor tissue is rinsed and minced in 0.05 M potassium phosphate buffer (pH 7.8) and homogenized in a motor-driven Teflon pestle homogenizer. […] CuDIPS is dissolved in 10% Tween 80-saline. This alternate method is chosen due to the length of previous procedure and lipid insolubility of some of the reactants of the previous assay. Free O2^- is released when DMSO-KO2 is added to an aqueous solution. […] The formation of blue formazan is determined by recording the final absorbance of the assay mixture at 560 nm with a Cary Model 15 spectrophotometer. […]
The conditions of data set [6]: rats, subcutaneous; reported; cited from earlier work.
In data set [7] the test system is neuroblastoma cell clone NBP2. It is filed as cell-based, mouse. As to conditions: 3 days; for % differentiation: control 8.0 ± 3.7; for % differentiation / Cell number ×10^5: mean ± S.D.; for Cell number ×10^5: control 17.1 ± 1.9. How it is done:
The neuroblastoma cell clone NBP2 provided by Dr. K. N. Prasad (University of Colorado), is maintained according to the procedure of Prasad and Hsie, Prasad, K. N. and Hsie, A. N., Nature New Biol. 233:141 (1971), hereby incorporated by reference. Cells are grown as a monolayer in 75 cm^2 Falcon plastic tissue culture flasks containing F-12 medium supplemented with 10% gamma globulin-free new born calf serum, penicillin (100 U/ml) and streptomycin (100 μg/ml). Cultures are maintained in a humidified atmosphere of 5% CO2 in a water jacketed incubator at 37° C. […] Only exponentially growing cells are used in the experiment. […] Medium, serum, antibiotics, and pancreatin are purchased from Grand Island Biological Company. […] Fifty-thousand cells were seeded in each […] plastic petri dish containing 5 ml of the growth medium. Cells are treated with CuDIPS 24 hours after seeding. CuDIPS is dissolved in ethanol to give a final concentration of 10, 25, or 50 μg/ml of copper compound in the medium. The concentration of ethanol in the medium is kept constant at 1% in all the treated and control dishes. Culture dishes containing 1% ethanol serve as controls. One day after the start of treatments and daily afterwards, fresh drug and medium are provided in each dish. To avoid possible degradation, CuDIPS is dissolved in ethanol immediately before use. The experiment is done in triplicate. Three days after the initial treatments the number of cells and percent differentiation of cells are scored in each dish. Four hundred cells per culture dish from at least three different regions are examined with a Leitz Divert phase contrast microscope. Cells with one or more processes at least twice as long as the soma diameter (processes usually longer than 50 microns) are scored as differentiated. To count the number of cells, cells are harvested with Pancreatin and the number of cells in each dish is determined by counting cells in a hemocytometer.

Data set [8] is described as follows: Acute toxicity LD50, subcutaneous, mice.
The nature of data set [9]: Acute toxicity LD50, subcutaneous, rats.
Where [10] appears, read: 50 μg/ml, listed as Cu(II)(3,5-diisopropylsalicylate)2.

With `CC(C)c1cc(C(=O)O)c(O)c(C(C)C)c1` [DIPS, diisopropylsalicylic acid], the body weight change entry in [1] (DIPS i.m., single doses) is “loss of body weight”.

For “Orgotein: generic name for CuZnSOD derived from bovine liver”, the “tumor growth curve vs control after 27 days” value with Sarcoma 180 cells [2] (1.2 mg at 1 hour after implantation, after 27 days) was “the growth curves are the same”. For the same molecule, in the data set with Sarcoma 180 cells [2] (1.2 mg at 1 hour after implantation, p less than 0.05 between 11 and 27 days), the “reduction in tumor size” value is on record as “reduction of tumor size; also recorded: a reduction in tumor size is observed”. Besides, in the data set with Sarcoma 180 cells [2] (1.2 mg i.m. at 1 hour), the “Maximum Survival Time” value worked out at 90 days and the “Median Survival Time” value was found to be 53 days. For the same molecule, the “Mean Survival Time” value in the data set with Sarcoma 180 cells [2] (1.2 mg i.m. at 1 hour, ± standard error, p less than 0.1) worked out at 53 ± 5 days. In the data set with Sarcoma 180 cells [2] (Orgotein treated group, p less than 0.1), the “increase in mean survival time” value is 23%. The “effect on tumor growth and survival” value in the data set with Sarcoma 180 cells [2] (local injection, Sarcoma 180) is “a slight effect on the tumor growth and survival”. Further, in the data set on Sarcoma 180 cells [2] (same dose given 5 or 10 days after transplantation), the “tumor growth / survival, delayed treatment” value is on record as “no significant decrease in tumor growth or increase in survival is observed”. In addition, in the data set with Sarcoma 180 cells [3], the “Viability of the Sarcoma 180 cells” value is “unchanged”. Besides, the “SOD activity of Orgotein as obtained” value in data set [4] (method of Beauchamp and Fridovich) is recorded as 3,300 units of pure erythrocyte SOD activity/mg protein. For the same molecule, the SOD activity in data set [4] (xanthine-xanthine oxidase method) is recorded as 49,500±300 units of SOD activity/mg protein.

On to `CC(C)c1cc(C(=O)[O-])c(O)c(C(C)C)c1.CC(C)c1cc(C(=O)[O-])c(O)c(C(C)C)c1.[Cu+2]` [CuDIPS, Cu(II) (3,5-diisopropylsalicylate)2], for which the SOD activity in data set [5] is on record as 17,400±1,800 units of SOD activity/mg of the compound. The body weight change entry in data set [1] (mouse, in vivo) is “no weight loss was observed”. The LD50 in data set [6] was 240 mg/kg and 240 ± 33 mg/kg. Moreover, the “% differentiation” value was determined as 7.4 ± 2.6% in [7] (10 μg/ml, listed as Cu(II)(3,5-diisopropylsalicylate)2); 22.4±2.6% in [7] (25 μg/ml); 22.4 ± 2.6% in [7] (25 μg/ml, listed as Cu(II)(3,5-diisopropylsalicylate)2); 74.2±4.9% in data set [7] (50 μg/ml); 74.2 ± 4.9% in data set [7] (setting [10]). In addition, the “Cell number ×10^5” value is listed as “a small reduction in the number of cells per culture dish” in [7] (10 μg/ml, p less than 0.05); 12.7 ± 1.4 ×10^5 in data set [7] (10 μg/ml, p less than 0.05, listed as Cu(II)(3,5-diisopropylsalicylate)2); 7.1±1.2 ×10^5 in data set [7] (25 μg/ml, per culture dish); 7.1 ± 1.2 ×10^5 in [7] (25 μg/ml, per culture dish, listed as Cu(II)(3,5-diisopropylsalicylate)2); “a remarkable reduction in cell population” in [7] (50 μg/ml); 1.4 ± 0.6 ×10^5 in data set [7] (setting [10]). Moreover, in data set [7] (25 μg/ml), the “cell population relative to control” value is listed as “less than half of the cell population”. Further, in data set [7] (50 μg/ml), the “morphology of treated cells” value is on record as “morphologically resembles mature neural cells”.

As for `CC(=O)Oc1ccccc1C(=O)[O-].CC(=O)Oc1ccccc1C(=O)[O-].CC(=O)Oc1ccccc1C(=O)[O-].CC(=O)Oc1ccccc1C(=O)[O-].[Cu+2].[Cu+2]` [Cu(II)2 (aspirinate)4], the LD50 result in [8] was “greater than 320 mg/kg”; in data set [9] it was 760 mg/kg.

As to `O=S(=O)([O-])[O-].[Cu+2]` [CuSO4, copper sulfate], the body weight change entry in [1] (CuSO4 0.5 mg in 0.1 ml, 5 days) is “continuous loss of weight”.
